Read-outs that look alike come from different tables or passages of the source. Non-standard residues stand in square brackets, D forms with d. Residues, ends and D or L forms follow the SMILES beside them. dNMeChg = CN[C@@H](C(=O)O)C1CCCCC1; Aze = O=C(O)[C@@H]1CCN1
What was measured:
[1] = system: citrated human plasma; assay: Activated partial thromboplastin time (APTT) plasma clotting assay; type: biochemical
Protocol: (§1) The inhibitory effect on plasma coagulation was evaluated in the thrombin time (TT), activated partial thromboplastin time (APTT) and prothrombin time (PT) assays by using citrated human plasma as substrate [Bagdy, D. et. al.: Thromb. Haemostas. 67, 325 (1992)]. The TT assay measures the inhibition of a single step, the coagulation of fibrinogen on the action of exogenous thrombin (final concentration 2.5 NIH U/ml). Clotting of plasma in the APTT and PT assays was induced by recalcification. Endogenous thrombin generated could theoretically be present at a final concentration as high as 50 NIH U/ml (APTT, PT). These assays detect the sum of inhibitory actions on fibrin formation and thrombin generation, which includes several proteolytic reactions mediated by either thrombin or other enzymes, e.g. fXa. Anticlotting activity is expressed in CT2, which is the concentration (nM) required to double the clotting time.

[2] = system: endotoxin-treated rabbits; type: in vivo, rabbit
[3] = system: citrated human plasma (exogenous thrombin); assay: Thrombin time (TT) plasma clotting assay; type: biochemical; conditions: thrombin 2.5 NIH U/ml
Protocol: as §1

[4] = target: urokinase (UK) (Homo sapiens, UniProt P00749); assay: Fibrin plate assay, urokinase; type: biochemical; conditions: reduction of lysed area to 50% of control, urokinase, read-out: LA50 UK
Text: (§2) Inhibitory effects of the compounds of the invention on plasmin (PL) and plasmin generation by plasminogen (Plogen) activators, such as tissue plasminogen activator (tPA), and urokinase (UK) were examined by the fibrin plate assay. (See e.g., Bagdy, D., Barabás, E., Bajusz, S., and Széll, E., Thromb. Haemostas., 67:325-330 (1992); Barabás, E. Szell, E. and Bajusz, S, Blood Coagulation and Fibrinolysis, 4: 243 (1993)) The results are shown in Table 1, Column C. With a few exceptions the analogues are somewhat more inhibitory than Efegatran against the three fibrinolytic enzymes.

[5] = target: clot-bound factor Xa (Homo sapiens, UniProt P00742); assay: Enzyme inhibition in platelet-rich plasma clots, chromogenic substrate Moc-D-Chg-Gly-Arg-pNA; type: biochemical
clot-bound factor Xa, sequence (P00742 235-488 limits assumed): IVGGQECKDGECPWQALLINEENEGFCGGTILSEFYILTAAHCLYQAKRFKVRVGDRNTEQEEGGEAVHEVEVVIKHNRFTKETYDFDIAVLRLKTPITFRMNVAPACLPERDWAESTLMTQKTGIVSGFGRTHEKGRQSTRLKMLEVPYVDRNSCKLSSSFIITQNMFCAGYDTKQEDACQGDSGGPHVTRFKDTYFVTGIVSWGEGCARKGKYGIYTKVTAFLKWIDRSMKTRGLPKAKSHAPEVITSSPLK
clot-bound factor Xa, sequence (P00742 41-179 limits assumed): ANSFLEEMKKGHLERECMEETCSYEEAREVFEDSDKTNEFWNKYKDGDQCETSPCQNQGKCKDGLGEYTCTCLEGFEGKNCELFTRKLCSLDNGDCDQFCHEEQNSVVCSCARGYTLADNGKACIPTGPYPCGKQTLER
Protocol: (§3) Tos-Gly-Pro-Arg-pNA (S1) for thrombin and Moc-D-Chg-Gly-Arg-pNA (S2) for factor Xa, as published (Bajusz, S. et al.: PCT Pub. No. WO97/46576) briefly. The assays were carried out at room temperature in glass tubes and 96-well microtiter plates.
(§4) Solutions, (i) Buffer A: 0.1 M sodium phosphate/0.05 M NaCl (pH 8.5). (ii) Inhibitors: 0.1, 1.0 and 10 mg/ml solutions in buffer A containing 0.02% human albumin. (iii) Substrates: 1 mM of S1 and 2 mM of S2 in distilled water.
(§5) (b) Preparation of plasma clots. Platelet rich plasma samples (200 μl) placed in glass tubes were incubated at room temperature with 80 μl 40 mM CaCl2 for 60 min. The clots were washed with 2 ml aliquots of saline (0.9% NaCl) with gentle agitation to remove unbound enzymes In case of successful washing the optical density of the reaction mixture of wash and S1 is less than 5% of the control. The plasma clot thus obtained was kept under saline in the tube until use.
(§6) (c) Assessment of the enzyme inhibition in the clots. After removal of saline, the plasma clot was incubated at 37° C. with 400 μl inhibitor (or buffer A as negative control) for 5 min. and with 100 μl substrate S1 or S3 for 30 min., then the reaction was stopped with 100 μl 50% acetic acid. 150 μl portions of the reaction mixtures were placed in the wells of a microtiter plate and read at 405 nm (ELISA READER 800, Bio-Tek Instruments Inc. Winooski, Vt., USA). IC50 values were generated from the extinction data graphically.

[6] = target: tissue plasminogen activator (tPA) (Homo sapiens, UniProt P00750); assay: Fibrin plate assay, tissue plasminogen activator; type: biochemical; conditions: reduction of lysed area to 50% of control, read-out: LA50 tPA
tissue plasminogen activator (tPA), sequence (P00750 36-562, species assumed): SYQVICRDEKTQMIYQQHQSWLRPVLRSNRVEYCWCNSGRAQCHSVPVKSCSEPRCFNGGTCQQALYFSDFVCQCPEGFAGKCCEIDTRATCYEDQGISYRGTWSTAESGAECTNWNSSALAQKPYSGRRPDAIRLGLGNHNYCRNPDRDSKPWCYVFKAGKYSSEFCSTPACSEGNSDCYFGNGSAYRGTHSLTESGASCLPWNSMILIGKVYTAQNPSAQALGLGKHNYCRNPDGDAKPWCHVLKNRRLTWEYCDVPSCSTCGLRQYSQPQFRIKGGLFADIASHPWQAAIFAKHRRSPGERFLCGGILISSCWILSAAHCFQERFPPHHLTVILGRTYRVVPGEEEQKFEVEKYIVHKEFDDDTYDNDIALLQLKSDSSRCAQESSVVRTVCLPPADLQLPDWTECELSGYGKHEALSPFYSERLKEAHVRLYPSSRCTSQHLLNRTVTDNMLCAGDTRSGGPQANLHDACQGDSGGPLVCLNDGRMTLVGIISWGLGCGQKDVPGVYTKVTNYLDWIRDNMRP
Text: as §2

[7] = system: LPS-treated rats; assay: Survival in a rat model for disseminated intravascular coagulation; type: in vivo; conditions: for Survival rate %: rats, 30 mg/kg LPS i.v.; for Effectiveness on survival compared with reference C (in words): LPS-treated rats
[8] = target: clot-bound thrombin (Homo sapiens, UniProt P00734); assay: Enzyme inhibition in platelet-rich plasma clots, chromogenic substrate Tos-Gly-Pro-Arg-pNA; type: biochemical; conditions: for IC50: clot-bound thrombin, platelet-rich plasma clot
Protocol: as §3, §4, §5, §6

[9] = system: citrated human plasma; assay: Prothrombin time (PT) plasma clotting assay; type: biochemical
Protocol: as §1

[10] = target: plasmin (PL) (Homo sapiens, UniProt P00747); assay: Fibrin plate assay, plasmin; type: biochemical; conditions: reduction of lysed area to 50% of control, read-out: LA50 PL
plasmin (PL), sequence (P00747 581-810 limits assumed, species assumed): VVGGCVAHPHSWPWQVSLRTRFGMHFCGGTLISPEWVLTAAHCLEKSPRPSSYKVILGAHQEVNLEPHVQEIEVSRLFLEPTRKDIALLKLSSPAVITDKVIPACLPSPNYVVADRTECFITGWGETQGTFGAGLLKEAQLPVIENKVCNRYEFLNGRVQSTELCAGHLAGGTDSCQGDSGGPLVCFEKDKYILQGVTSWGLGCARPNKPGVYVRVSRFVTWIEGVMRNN
plasmin (PL), sequence (P00747 97-580 limits assumed, species assumed): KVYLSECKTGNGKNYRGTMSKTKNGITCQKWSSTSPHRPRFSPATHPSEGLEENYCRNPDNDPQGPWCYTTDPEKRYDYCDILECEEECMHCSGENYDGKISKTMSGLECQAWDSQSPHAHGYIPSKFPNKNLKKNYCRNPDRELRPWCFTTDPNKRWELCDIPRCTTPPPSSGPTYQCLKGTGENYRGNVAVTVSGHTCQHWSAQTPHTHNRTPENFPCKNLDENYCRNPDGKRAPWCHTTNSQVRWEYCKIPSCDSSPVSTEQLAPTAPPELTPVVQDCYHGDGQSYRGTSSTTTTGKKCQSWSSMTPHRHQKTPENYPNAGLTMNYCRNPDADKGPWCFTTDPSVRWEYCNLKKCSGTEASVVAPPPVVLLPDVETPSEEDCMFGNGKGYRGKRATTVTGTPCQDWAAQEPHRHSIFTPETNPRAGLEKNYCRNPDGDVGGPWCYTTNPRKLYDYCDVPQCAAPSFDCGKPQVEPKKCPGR
Text: as §2

[11] = endotoxin-treated rabbits, 0.25 mg/kg/h infusion
[12] = endotoxin-treated rabbits, 0.5 mg/kg/h infusion
[13] = 0.75 mg/kg bolus + infusion, 0 hours
[14] = 0.75 mg/kg bolus + infusion, 4 hours
[15] = 0.75 mg/kg bolus + infusion, 5 hours
[16] = 0.75 mg/kg bolus + infusion, 6 hours
[17] = 0.75 mg/kg bolus + infusion, 7 hours
[18] = 0.75 mg/kg bolus + infusion, 8 hours
[19] = 1.0 mg/kg bolus + infusion, 0 hours
[20] = 1.0 mg/kg bolus + infusion, 4 hours
[21] = 1.0 mg/kg bolus + infusion, 5 hours
[22] = 1.0 mg/kg bolus + infusion, 6 hours
[23] = 1.0 mg/kg bolus + infusion, 7 hours
[24] = 1.0 mg/kg bolus + infusion, 8 hours
[25] = 1.5 mg/kg bolus + infusion, 0 hours
[26] = 1.5 mg/kg bolus + infusion, 4 hours
[27] = 1.5 mg/kg bolus + infusion, 5 hours
[28] = 1.5 mg/kg bolus + infusion, 6 hours
[29] = 1.5 mg/kg bolus + infusion, 7 hours
[30] = 1.5 mg/kg bolus + infusion, 8 hours
[31] = endotoxin-treated rabbits, 50 U/kg/h
[32] = endotoxin-treated rabbits, 100 U/kg/h

| Molecule | CT2 APTT (concentration required for doubling the clotting time) [1] | Lethality %, 2 hrs [2, 12] | Lethality no. died/treated animals, 2 hrs [2, 12] | Lethality %, 4 hrs [2, 12] | Lethality no. died/treated animals, 4 hrs [2, 12] | CT2 TT (concentration required for doubling the clotting time) [3] | IC50 [4] | IC50 [5] | IC50 [6] | Survival rate % [7, 13] | Survival rate % [7, 14] | Survival rate % [7, 15] | Survival rate % [7, 16] | Survival rate % [7, 17] | Survival rate % [7, 18] | Survival rate % [7, 25] | Survival rate % [7, 26] | IC50 [8] | CT2 PT (concentration required for doubling the clotting time) [9] | IC50 [10] | further results |
| --- | --- | --- | --- | --- | --- | --- | --- | --- | --- | --- | --- | --- | --- | --- | --- | --- | --- | --- | --- | --- | --- |
| CN[C@H](Cc1ccccc1)C(=O)N1CCC[C@H]1C(=O)N[C@H](C=O)CCCN=C(N)N [C, D-MePhe-Pro-Arg-H, reference compound] | 622 nM | 7% | 1/15 | 40% | 6/15 | 87 nM | 82 µM | 1 µM | 132 µM | 100% | 93% | 73% | 67% | 33% | 27% | 100% | 100% | 0.375 µM | 2915 nM | 54 µM | Lethality %, 2 hrs [2, 11]: 7%; Lethality no. died/treated animals, 2 hrs [2, 11]: 1/14; Lethality %, 4 hrs [2, 11]: 36%; Lethality no. died/treated animals, 4 hrs [2, 11]: 5/14; Survival rate % [7, 19]: 100%; Survival rate % [7, 20]: 83%; Survival rate % [7, 21]: 83%; Survival rate % [7, 22]: 66%; Survival rate % [7, 23]: 58%; Survival rate % [7, 24]: 50%; Survival rate % [7, 27]: 100%; Survival rate % [7, 28]: 100%; Survival rate % [7, 29]: 92%; Survival rate % [7, 30]: 92% |
| CN[C@H](CC1CCCCCC1)C(=O)N1CCC[C@H]1C(=O)N[C@H](C=O)CCCNC(=N)N [Compound 2, N-methyl-D-cycloheptylalanyl-L-prolyl-L-arginine aldehyde] | 315 nM |  |  |  |  | 118 nM | 18 µM | 0.102 µM | 14 µM | 100% | 86% | 78% | 57% | 57% | 50% | 100% | 100% | 0.093 µM | 876 nM | 16 µM | Effectiveness on survival compared with reference C (in words) [7]: more effective than reference C; Survival rate % [7, 19]: 100%; Survival rate % [7, 20]: 100%; Survival rate % [7, 21]: 100%; Survival rate % [7, 22]: 100%; Survival rate % [7, 23]: 90%; Survival rate % [7, 24]: 90%; Survival rate % [7, 27]: 100%; Survival rate % [7, 28]: 100%; Survival rate % [7, 29]: 100%; Survival rate % [7, 30]: 100%; Inhibition of clot-bound thrombin compared with Efegatran (in words) [8]: surpass Efegatran |
| CN[C@@H](C(=O)N1CC[C@H]1C(=O)N[C@H](C=O)CCCNC(=N)N)C1CCCCC1 [Compound 4, N-methyl-D-cyclohexylglycyl-L-azetidine-2-carbonyl-L-arginine aldehyde] (H-[dNMeChg]-[Aze]-Arg-aldehyde) | 677 nM |  |  |  |  | 101 nM | 16 µM | 0.457 µM | 12 µM | 100% | 100% | 100% | 100% | 92% | 85% | 100% | 100% | 0.245 µM | 2921 nM | 32 µM | Effectiveness on survival compared with reference C (in words) [7]: more effective than reference C; Survival rate % ([7]; 0.5 mg/kg bolus + infusion, 0 hours): 100%; Survival rate % ([7]; 0.5 mg/kg bolus + infusion, 4 hours): 93%; Survival rate % ([7]; 0.5 mg/kg bolus + infusion, 5 hours): 87%; Survival rate % ([7]; 0.5 mg/kg bolus + infusion, 6 hours): 87%; Survival rate % ([7]; 0.5 mg/kg bolus + infusion, 7 hours): 87%; Survival rate % ([7]; 0.5 mg/kg bolus + infusion, 8 hours): 80%; Survival rate % [7, 27]: 100%; Survival rate % [7, 28]: 100%; Survival rate % [7, 29]: 100%; Survival rate % [7, 30]: 100%; Inhibition of clot-bound thrombin compared with Efegatran (in words) [8]: surpass Efegatran |
| N=C(N)NCCC[C@@H](C=O)NC(=O)[C@@H]1CCCN1C(=O)[C@H](O)C1CCCCCC1 [Compound C1, reference compound] | 333 nM | 0% | 0/16 | 31% | 5/16 | 120 nM | 120 µM | 0.2 µM | 74 µM |  |  |  |  |  |  |  |  | 0.524 µM | 1254 nM | 83 µM | Effect on lethality of endotoxin-treated rabbits (in words) ([2]; compared with endotoxin alone): no effect on lethality |
| N=C(N)NCCC[C@@H](C=O)NC(=O)[C@@H]1CCCN1C(=O)C(O)CCc1ccccc1 (stereo partly drawn) [Compound C3, hPla-Pro-Arg-H] |  | 6% | 1/18 | 56% | 10/18 |  |  |  |  |  |  |  |  |  |  |  |  |  |  |  | Increase in lethality ([2]; endotoxin-treated rabbits, relative to endotoxin alone): ~1.8 fold |
| heparin |  |  |  |  |  |  |  |  |  |  |  |  |  |  |  |  |  |  |  |  | Lethality %, 2 hrs [2, 31]: 0%; Lethality no. died/treated animals, 2 hrs [2, 31]: 0/17; Lethality %, 4 hrs [2, 31]: 35%; Lethality no. died/treated animals, 4 hrs [2, 31]: 6/17; Lethality %, 2 hrs [2, 32]: 0%; Lethality no. died/treated animals, 2 hrs [2, 32]: 0/19; Lethality %, 4 hrs [2, 32]: 37%; Lethality no. died/treated animals, 4 hrs [2, 32]: 7/19 |
